Source: US11198704B2, “Butane-tetraol-based amphiphiles and uses thereof” (Industry-University Cooperation Foundation Hanyang …, priority 2016, dated 2021)

Key:
[1] = tested on: leucine transporter (LeuT); assay: Structural stability of LeuT, [3H]-Leu binding by scintillation proximity assay (SPA); type: biochemical, Aquifex aeolicus; details: CMC+0.04% or CMC+0.2% by weight; room temperature; 12 days incubation
Experimental: An experiment for measuring structural stability of a LeuT protein by BTMs in an aqueous solution was performed. Each amphiphilic compound was used at a concentration of (a) CMC+0.04% by weight or (b) CMC+0.2% by weight, and the ligand-binding characteristics of LeuT were determined through a scintillation proximity assay (SPA) using [^3H]-Leu. The measurement was performed at room temperature at regular intervals during an incubation period of 12 days.
Specifically, thermophilic bacteria (Aquifex aeolicus)-derived wild-type leucine transporter (LeuT) were purified using the method as described above (G. Deckert, et al., Nature 1998, 392, 353-358). LeuT was expressed in E. coli C41 (DE3) transformed with pET16b encoding a C-terminal 8×His-tagged transporter (an expression plasmid was provided from Dr. E. Gouaux, Vollum Institute, Portland, Oreg., USA). […] Protein samples were stored at room temperature for 12 days, and centrifuged for a given time, and the characteristics of the proteins were determined by measuring a [^3H]-leucine binding ability using SPA. […] The entire [^3H]-leucine binding affinity to each sample was measured using a MicroBeta liquid scintillation counter (PerkinElmer).

[2] = biological target: T1, melibiose permease (MelB) (Salmonella typhimurium, UniProt P30878); assay: MelB extraction and thermostability, SDS-PAGE and Western Blotting of the dissolved protein; details: 90 minutes, detergent 1.5% by weight
T1 construct: made in house; host or cells: E. coli DW2
Experimental: The MelB protein was extracted from a membrane using BTM-C11s or DDM, and the amount and structure of the extracted protein were analyzed through SDS-PAGE and Western Blotting. A concentration of the amphiphilic compound used was 1.5% by weight, and the protein was extracted at four temperatures (0, 45, 55, and 65° C.), and incubated at the same temperature for 90 minutes. Thereafter, an amount of the protein remaining dissolved in an aqueous solution was measured to evaluate two types of performance: protein extraction efficiency and stabilization ability of the compound. The amount of the protein extracted and stabilized with each of the amphiphilic molecules is expressed as a relative value (%) of the entire amount of proteins contained in a membrane sample which is not treated with the amphiphilic molecules.
Specifically, Salmonella typhimurium melibiose permease (MelBSt) having a 10-His tag at the C-terminus thereof was expressed in E. coli DW2 cells (AmelB and AlacZY) using a plasmid pK95ΔAHB/WT MelBSt/CH10. Cell growth and membrane preparation were performed according to the method disclosed in the article by A. S. Ethayathulla et al. (Nat. Commun. 2014, 5, 3009). A protein assay was performed using a Micro BCA kit (Thermo Scientific, Rockford, Ill.). An effect of the isomers (A-BTM-C11, B-BTM-C11, and M-BTM-C11) of the BTM-C11s or DDM on the MelBSt stability was evaluated using the protocol disclosed in P. S. Chae et al. (Nat. Methods 2010, 7, 1003-1008). A membrane sample (having a final protein concentration of 10 mg/mL) containing MelBSt was incubated at four temperatures (0, 45, 55, and 65° C.) for 90 minutes in a solubilizing buffer (20 mM sodium phosphate, pH 7.5, 200 mM NaCl, 10% glycerol, and 20 mM melibiose) containing 1.5% (w/v) DDM or the BTM-C11 isomers. To remove insoluble matter, the sample was ultracentrifuged at 355,590 g at 4° C. for 45 minutes using a Beckman Optima™ MAX ultracentrifuge equipped with a TLA-100 rotor. The dissolved fraction was separated by 16% SDS-PAGE, and then immunoblotted with a Penta-His-HRP antibody (Qiagen, Germantown, Md.). The membrane fraction containing 20 μg of untreated proteins was used to represent the entire MelB, and the treated samples were loaded in each well at the same volume. MelBSt was measured by an ImageQuant LAS 4000 Biomolecular imager (GE Health Care Life Sciences) using a SuperSignal West Pico chemiluminescent substrate.

T1 sequence (P30878 whole entry): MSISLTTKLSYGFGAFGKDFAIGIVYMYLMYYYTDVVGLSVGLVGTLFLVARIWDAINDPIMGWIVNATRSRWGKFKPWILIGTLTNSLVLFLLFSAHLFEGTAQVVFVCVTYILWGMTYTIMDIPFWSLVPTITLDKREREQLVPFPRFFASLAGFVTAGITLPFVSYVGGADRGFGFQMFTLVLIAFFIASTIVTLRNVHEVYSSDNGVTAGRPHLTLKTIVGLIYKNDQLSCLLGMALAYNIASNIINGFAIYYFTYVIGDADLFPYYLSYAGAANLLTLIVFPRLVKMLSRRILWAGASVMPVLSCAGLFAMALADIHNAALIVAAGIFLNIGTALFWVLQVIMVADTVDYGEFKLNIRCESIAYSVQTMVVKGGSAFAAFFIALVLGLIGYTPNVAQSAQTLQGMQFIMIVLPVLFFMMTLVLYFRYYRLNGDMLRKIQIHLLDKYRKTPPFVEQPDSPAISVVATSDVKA

Structure (SMILES): CCCCCCCCCCCCO[C@@H]1O[C@H](CO)[C@@H](O[C@H]2O[C@H](CO)[C@@H](O)[C@H](O)[C@H]2O)[C@H](O)[C@H]1O [DDM, n-dodecyl-β-D-maltopyranoside, reference compound]
- maintenance of ligand-binding characteristics of LeuT [1]: continuous structural collapse of the solubilized transporter
- MelB protein extraction efficiency / dissolved MelB ([2]; 0° C.): high MelB protein extraction efficiency
- amount of MelB protein remaining dissolved in aqueous solution ([2]; 55° C.): approximately 15%
- amount of dissolved MelB ([2]; 65° C.): very small amount of the protein remained
